Laboratory results from patent US12274703B2, “Compositions and methods of treatment for neurological disorders comprising a dementia” (Gliapharm SA, priority 2017, dated 2025).
pEC50, pIC50: −log10 of the molar value. Counter-ions that a name gives are not always drawn. Like-named read-outs stand apart in the source and are kept apart here.

How the values were obtained:
astrocytes [1] = assay: Extracellular lactate quantification; format: cell-based, mouse; conditions: for pEC50: Mus musculus, Astrocyte; for Score_LACTATE: Appendix I, secondary screening, dosage of extracellular lactate
Protocol: (§1) Primary cultures of cerebrocortical astrocytes were obtained from 1-2-day-old OF1 mouse pups (Charles River Laboratories). Briefly, cortices were isolated and minced in small pieces under a dissecting microscope. The cells were incubated for 30 min at 37° C. in a solution containing 20 U/ml of papain enzyme (Worthington Biochemical), L-cysteine 1 mM (Sigma), and 10 kU/ml DNase I (Worthington Biochemical) for an enzymatic dissociation. Papain activity was stopped by the addition of fetal calf serum (FCS) to the solution, and a single-cell suspension was then obtained by mechanical dissociation, which consisted in cells trituration in a DMEM (D7777, Sigma-Aldrich) medium (supplemented with 44 mm NaHCO3, and 10 ml/L antibiotic/antimycotic solution) containing 10% FCS. The cells were seeded at an average density of 6×10^4 cells/cm^2 in poly-D-lysine-coated 96, 12 or 6-well culture plates, depending on their use, and incubated at 37° C. in a humidified atmosphere containing 5% CO2/95% air. Culture medium was renewed twice per week. Cells were stimulated and harvested between DIV14 and DIV17, when confluence and cell growth were optimal.
Secretion of L-lactate was determined in the extracellular medium of 96-well plated astrocytes after 90 min stimulation (at 37° C., in 5% CO2/95% air conditions) with the drug of interest. The stimulation medium was composed of D5030 medium (completed with D-glucose 5 mM and 44 mM sodium bicarbonate) for 90 min in concentrations ranging from 0 to 100 μM.
Briefly, 200 μl of a Glycine (Sigma)-Semicarbazide (Acros) 0.2M pH 10 buffer containing 3 mM NAD (Roche) and LDH 14 U/ml (Roche) was added to each well of a 96-well plate containing 30 μl aliquots complemented with 20 μl fresh complete D5030 medium. Samples were incubated at 37° C. for 1 h. After samples cooled down at room temperature, the fluorescence intensity (340 nm excitation/450 nm emission) that represents the amount of NADH produced was measured, and lactate concentration values were determined from a standard curve of L-lactate.
Statistical analysis consisted in ANOVA followed by Fisher LSD post-hoc test for pair-wise comparisons.
Levels of lactate secreted by astrocytes were measured in the extracellular medium at 90 min after stimulation with hits (molecules) from the CDC54K library.

astrocytes [2] = assay: MTT viability assay; format: cell-based; conditions: Mus musculus, Astrocyte, cellular toxicity, 0-200 uM
Protocol: as §1
For cell toxicity determination, astrocytes in 96-well plates were stimulated 24 h (37° C. 5% CO2/95% air) with a gradient ranging from 0.1 to 200 μM of tested compounds. After stimulation, 5 mg/ml thiazol blue tetrazolium bromide (MTT, Sigma-Aldrich) in warm D5030 complete medium was added to each well, and cells were incubated for 4 h at 37° C. (5% CO2). The medium was then removed by aspiration, and the reaction was stopped by the addition of 50 μl DMSO per well.
The amount of reduced MTT (formazan) solubilized in DMSO was then determined spectrophotometrically using absorbance at 570 nm (Safire 2; Tecan).
MTT cellular viability assay was performed on astrocytes exposed to molecules from the Prestwick library (Prestwick hits; concentrations ranging from 0 uM to 200 uM).
MTT cellular viability assay was performed on astrocytes exposed to CDC54K hits (concentrations ranging from 0 uM to 200 uM).

primary astrocytes = assay: High throughput screening for lactate secretion: acidification of extracellular medium (SNARF5); format: cell-based, mouse; parameters: key to Score / HTS Score (lactate) / HTS Score (SNARF5) / Score_SNARF: fraction of positive control activity (positive control = 100%); conditions: for Emax at 10 µM: Mus musculus, Astrocyte, 1.5 h; for Score_SNARF: primary screening confirmation (SNARF5)
Outline: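 Mouse cortical astrocytes (DIV17) stimulated 90 min at 10 uM compound (1% DMSO) in low-bicarbonate DMEM, 5 mM glucose, with SNARF-5F; extracellular acidification read as 630/580 nm emission ratio (exc 480 nm). Duplicates; score as % of CCCP 2 uM control, hits >3× summed SD above DMSO.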

astrocytes [3] = assay: Intracellular glycogen quantification; format: cell-based, mouse; conditions: 10 μM, 3 h
astrocytes [4] = assay: Production of H2O2 (mitochondrial activity); format: cell-based; conditions: Mus musculus, Astrocyte, 1.5 h; CDC54K hits; 0-200 uM, 90 min
Protocol: as §1
Hydrogene peroxide (H2O2) released in the supernatant is detected enzymatically with Amplex red (Zhou, Diwu et al. 1997). Oxidation of Amplex red is catalysed by the horseradish peroxidase in presence of H2O2 into highly fluorescent resorufin. Fluorescence measure is read at 545 nm extinction, 590 nm emission. The amount of H2O2 was expressed relatively to the proteins content extracted from the cells in culture. […]
Mitochondrial respiration in astrocytes was measured through production of H2O2 at 90 min after stimulation with CDC54K hits (ranging from 0 to 200 uM).

[5] = 1.5 h, Prestwick hits, 0-100 μM, 90 min, read-out: Lactate EC50
[6] = Prestwick hits, 10 uM, 90 min, activity relative to positive control CCCP 2 uM, read-out: Score
[7] = Prestwick hits, 10 uM, 90 min, relative to positive control CCCP 2 uM, read-out: HTS Score (lactate)
[8] = 1.5 h, CDC54K hits, 0-100 uM, 90 min, read-out: Lactate EC50
[9] = Appendix I, primary screening, 10 uM, 90 min, relative to positive control, read-out: Score
[10] = CDC54K hits, 10 uM, 90 min, relative to positive control CCCP 2 uM, read-out: HTS Score (SNARF5)
[11] = Appendix I, primary screening, 10 uM, 90 min, relative to positive control
[12] = CDC54K hits, 10 uM, 90 min, relative to positive control CCCP 2 uM

Compound	pEC50 (astrocytes [1]; [5])	pIC50 (astrocytes [2]; Prestwick hits, 24 h)	Emax at 10 µM (primary astrocytes; [6])	Emax at 10 µM (primary astrocytes; [7])	pEC50 (astrocytes [1]; [8])	pIC50 (astrocytes [2]; CDC54K hits)	pIC50 (astrocytes [4])	also measured
N=C(N)N1CCc2ccccc2C1 [Debrisoquin sulfate]	5.56	< 3.70	23.8%	23.8%				
CC[N+](CC)(CC(=O)Nc1c(C)cccc1C)Cc1ccccc1 [Denatonium benzoate]	4.91	3.75	11%	11%				
C[N+]1(C)CCC(=C(c2ccccc2)c2ccccc2)CC1 [Diphemanil methylsulfate]	5.93	4.86	48.4%	48.4%				
O=C(COc1ccc(Cl)cc1)N1CCN(Cc2ccc3c(c2)OCO3)CC1 [Fipexide hydrochloride]	5.29	4.36	16.6%	16.6%				Glycogen (statistical significance of glycogen degradation) (astrocytes [3]; Prestwick hits): ns
COC1=C(OC)C(=O)C(CCCCCCCCCCO)=C(C)C1=O [Idebenone]	6.22	3.95	25.9%	25.9%				
COc1ccccc1NC(=O)Cc1nn(C)c(=O)c2ccccc12 [K851-0113]					5.70	< 3.70	< 3.70	Glycogen (statistical significance of glycogen degradation) (astrocytes [3]; CDC54K hits): ns; Emax at 10 µM (primary astrocytes; [9]): 72.2%; Emax at 10 µM (primary astrocytes; [10]): 72.2%
CSc1cccc(NS(=O)(=O)c2ccc3onc(C(=O)N4CCCC4)c3c2)c1 [L995-0125]					5.70	< 3.70	3.76	Score_LACTATE (astrocytes [1]): 0.9122; Glycogen (statistical significance of glycogen degradation) (astrocytes [3]; CDC54K hits): ns; Score_SNARF (primary astrocytes; Appendix I): 0.8016; Score (primary astrocytes; [11]): 0.8545; HTS Score (SNARF5) (primary astrocytes; [12]): 0.854
COc1ccc(Cc2nccc3cc(OC)c(OC)cc23)cc1OC [Papaverine hydrochloride]	6.20	< 3.70	35.5%	35.5%				
[H]/N=C(\N/C(=N/[H])Nc1ccc(Cl)cc1)NC(C)C [Proguanil hydrochloride]	6.07	4.32	55.5%	55.5%				
CC(C)[N+](C)(CCOC(=O)C1c2ccccc2Oc2ccccc21)C(C)C [Propantheline bromide]	4.93	4.89	49.1%	49.1%				
Fc1ccc(-c2cc3n(n2)CCCN(Cc2ccncc2)C3)cc1 [T202-1455]					4.82	< 3.70	< 3.70	Glycogen (statistical significance of glycogen degradation) (astrocytes [3]; CDC54K hits): ns; Emax at 10 µM (primary astrocytes; [9]): 97.1%; Emax at 10 µM (primary astrocytes; [10]): 97.1%
CC(=O)c1cccc(NC(=O)C(C)Sc2ncnc3ccccc23)c1 (stereo not shown) [T0511-9200]					4.99	< 3.70	< 3.70	Glycogen (statistical significance of glycogen degradation) (astrocytes [3]; CDC54K hits): ns; Emax at 10 µM (primary astrocytes; [9]): 84.4%; Emax at 10 µM (primary astrocytes; [10]): 84.4%
CCc1ccc(S(=O)(=O)N2CCSC2c2ccc(OC)c(OC)c2)cc1 (stereo not shown) [T5463586]					5.00	< 3.70	< 3.70	Score_LACTATE (astrocytes [1]): 0.3936; Score_SNARF (primary astrocytes; Appendix I): 0.5553; Score (primary astrocytes; [11]): 0.7707; HTS Score (SNARF5) (primary astrocytes; [12]): 0.77
CCc1ccc(S(=O)(=O)Nc2ccc3[nH]ncc3c2)cc1 [T5599014]					5.06	< 3.70	3.80	Score_LACTATE (astrocytes [1]): 0.4419; Glycogen (statistical significance of glycogen degradation) (astrocytes [3]; CDC54K hits): ns; Score_SNARF (primary astrocytes; Appendix I): 0.5778; Score (primary astrocytes; [11]): 0.5424; HTS Score (SNARF5) (primary astrocytes; [12]): 0.542
COc1cccc(CNS(=O)(=O)c2ccc3c(c2)CCCN3C(C)=O)c1 [T5967389]					4.63	< 3.70	< 3.70	pEC50 (astrocytes [1]; Appendix II, lactate secretion, read-out: EC50): 5.01; Emax at 10 µM (primary astrocytes; [9]): 79%; Emax at 10 µM (primary astrocytes; [10]): 79%
C#C[C@]1(O)CC[C@H]2[C@@H]3[C@H](C)CC4=C(CCC(=O)C4)[C@H]3CC[C@@]21C [Tibolone]	5.65	4.22	22.7%	22.7%				
O=c1n(CCCN2CCN(c3cccc(Cl)c3)CC2)nc2ccccn12 [Trazodone hydrochloride, trazodone, reference compound]								Glycogen (statistical significance of glycogen degradation) (astrocytes [3]; Prestwick hits): ns; Score (primary astrocytes; Prestwick hits, 10 uM, 90 min, activity relative to positive control CCCP 2 uM): 0.08377; HTS Score (lactate) (primary astrocytes; Prestwick hits, 10 uM, 90 min, relative to positive control CCCP 2 uM): 0.084
Cc1c(C)c2c(c(C)c1O)CCC(C)(COc1ccc(CC3SC(=O)NC3=O)cc1)O2 (stereo not shown) [Troglitazone]	5.59	3.98	27%	27%				
